Like-named read-outs stand apart in the source and are kept apart here.

The test system of test [1] is platelet aggregation induced by collagen. Description: Anti-platelet aggregation assay, collagen-induced. It counts as cell-based. The settings on record: for IC50 / Collagen Inhibition Rate (%) ± SD: platelet aggregation induced by 0.33 U/mL collagen; for IC50: 4 working concentrations; for Collagen Inhibition Rate (%) ± SD: mean ± SD of three values. Here is the method:
(§1) Furthermore, the target compounds 10–13 were capable of inhibiting the platelet aggregation induced by 10 μM ADP and 0.33 U/mL collagen.
(§2) The anti-platelet aggregation assays were performed according to the method reported by XIE et al. (Supplementary Materials).

Test [2] relates to platelet aggregation induced by ADP. Description: Anti-platelet aggregation assay, ADP-induced. It counts as cell-based. As to conditions: for IC50 / ADP Inhibition Rate (%) ± SD: platelet aggregation induced by 10 μM ADP; for IC50: 4 working concentrations; for ADP Inhibition Rate (%) ± SD: mean ± SD of three values. How it is done:
as §1, §2

For a further test, the target named is T1, human recombinant COX-2 (Homo sapiens, UniProt P35354).
T1 construct: purchased Cayman Chemical 560131
T1 sequence (P35354 18-604): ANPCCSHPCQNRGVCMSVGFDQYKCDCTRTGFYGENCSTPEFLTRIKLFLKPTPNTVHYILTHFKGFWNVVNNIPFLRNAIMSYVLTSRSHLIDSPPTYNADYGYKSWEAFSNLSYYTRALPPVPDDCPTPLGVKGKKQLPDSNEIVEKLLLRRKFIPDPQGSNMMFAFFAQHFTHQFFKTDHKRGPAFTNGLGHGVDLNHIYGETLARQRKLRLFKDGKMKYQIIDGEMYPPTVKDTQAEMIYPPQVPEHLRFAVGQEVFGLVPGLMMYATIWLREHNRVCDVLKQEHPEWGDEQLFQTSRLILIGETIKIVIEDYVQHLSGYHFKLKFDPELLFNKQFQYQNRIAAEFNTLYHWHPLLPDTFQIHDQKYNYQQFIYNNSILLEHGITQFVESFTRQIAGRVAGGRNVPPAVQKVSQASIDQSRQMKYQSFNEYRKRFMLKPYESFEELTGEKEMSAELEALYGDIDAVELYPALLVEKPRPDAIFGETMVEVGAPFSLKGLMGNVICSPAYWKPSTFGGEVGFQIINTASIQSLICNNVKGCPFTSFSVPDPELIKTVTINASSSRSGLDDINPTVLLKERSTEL
Description: Cyclooxygenase inhibition assay (EIA kit), COX-2. The test is classed as biochemical. The settings on record: human recombinant COX-2, EIA kit.

For the next test, the system named is human recombinant COX-1. Description: Cyclooxygenase inhibition assay (EIA kit), COX-1. It counts as biochemical. As to conditions: COX-1 over COX-2.
The test system of a further test is COX-1. As to conditions: cited from earlier work; for selectivity index: COX-1 selectivity.
For the next test, the system named is COX-2. The settings on record: cited from earlier work.
Setting [3] is: previous examples of Figure 1, read-out: IC50 COX-1.

Take `CC(=O)Oc1ccccc1C(=O)O` [Aspirin]: in test [1], the 50% inhibitory concentration (IC50) is 510 nM and the “Collagen Inhibition Rate (%) ± SD” value was determined as 64.3 ± 1.38%. Further, in test [2], it took 490 nM to reach half-maximal inhibition (IC50) and the “ADP Inhibition Rate (%) ± SD” value is listed as 92.36 ± 1.5%.
With `O=S(=O)(Nc1ncccn1)c1ccc(/N=C/c2ccco2)cc1` [Compound 10, (E)-4-(Furan-2-ylmethyleneamino)-N-(pyrimidin-2-yl)benzenesulfonamide], in test [1], the IC50 came to 620 nM and the “Collagen Inhibition Rate (%) ± SD” value came out at 89.36 ± 1.23%. The IC50 on human recombinant COX-2 turned out to be 11.3 µM. The “COX1 Selectivity Index” value in the test with human recombinant COX-1 stood at 5.86. Also, in test [2], the IC50 is 370 nM and the “ADP Inhibition Rate (%) ± SD” value is recorded as 78.36 ± 1.36%.
Regarding `O=S(=O)(Nc1ncccn1)c1ccc(/N=C/c2ccccc2O)cc1` [Compound 11, (E)-4-(2-Hydroxybenzylideneamino)-N-(pyrimidin-2-yl)benzenesulfonamide], in test [1], the IC50 turned out to be 1030 nM and the “Collagen Inhibition Rate (%) ± SD” value came out at 76.35 ± 1.34%. For the same compound, the 50% inhibitory concentration (IC50) on human recombinant COX-2 is 15.2 µM. Besides, in the test with human recombinant COX-1, the “COX1 Selectivity Index” value is given as 3.16. Besides, in test [2], the concentration for half-maximal inhibition (IC50) was found to be 250 nM and the “ADP Inhibition Rate (%) ± SD” value stood at 84.36 ± 1.64%.
`O=S(=O)(Nc1cnc2ccccc2n1)c1ccc(/N=C/c2ccco2)cc1` [Compound 12, (E)-4-(Furan-2-ylmethyleneamino)-N-(quinoxalin-2-yl)benzenesulfonamide]: in test [1] (fold versus aspirin), the “activity compared to aspirin, collagen” value is on record as 4.25 folds. Also, in test [1], the IC50 came to 120 nM and the “Collagen Inhibition Rate (%) ± SD” value came out at 95.9 ± 1.39%. For the same compound, the IC50 at human recombinant COX-2 is 13.3 µM. Also, the “COX1 Selectivity Index” value in the test with human recombinant COX-1 came out at 18.69. In addition, in test [2] (fold versus aspirin), the “reactivity compared to aspirin, ADP” value stood at 4.45 folds. Moreover, in test [2], the IC50 was 110 nM and the “ADP Inhibition Rate (%) ± SD” value was 98.1 ± 1.68%.
Turning to `O=S(=O)(Nc1cnc2ccccc2n1)c1ccc(/N=C/c2ccccc2O)cc1` [Compound 13, (E)-4-(2-Hydroxybenzylideneamino)-N-(quinoxalin-2-yl)benzenesulfonamide], the “Collagen Inhibition Rate (%) ± SD” value in test [1] was found to be 45.36 ± 1.56%. In addition, on human recombinant COX-2, the IC50 was found to be 9.26 µM. Moreover, in the test with human recombinant COX-1, the “COX1 Selectivity Index” value was determined as 2.87. Besides, the “ADP Inhibition Rate (%) ± SD” value in test [2] turned out to be 46.32 ± 1.32%.
As for `Oc1ccc(/C=C/c2cc(O)cc(O)c2)cc1` [Compound II], in the test on COX-1, the selectivity index result is on record as “around 200 folds”. In addition, the IC50 in the test on COX-1 (read-out: IC50 COX-1) is 15 µM.
For `Nc1ccc(S(=O)(=O)Nc2ccc(Cl)cc2)cc1` [Compound I], the selectivity index result in the test with COX-1 is on record as “approximately 100 folds”. For the same compound, the IC50 in the test with COX-1 (read-out: IC50 COX-1) is 12 µM.
Consider `COc1ccc(-c2nc3ccccc3nc2-c2ccc(S(C)(=O)=O)cc2)cc1` [III], for which the IC50 in the test on COX-1 (setting [3]) is over 30 µM; in the test on COX-2 (previous examples of Figure 1), 400 nM.
Consider `COc1ccc(-c2ncc(C)nc2-c2ccc(S(N)(=O)=O)cc2)cc1` [IV], for which the half-inhibitory concentration (IC50) in the test with COX-1 (setting [3]) was 97 µM; with COX-2 (previous examples of Figure 1), 460 nM.
As to `CS(=O)(=O)c1ccc(-c2nc(NCc3ccc(F)cc3)cc(C(F)(F)F)n2)cc1` [IX], in the test on COX-1 (previous examples of Figure 1), the COX-1 activity entry was “not active”. Moreover, the IC50 in the test with COX-2 (previous examples of Figure 1) was 7 nM.
As for `COc1ccc2c(c1)c(CC(=O)O)c(C)n2C(=O)c1ccc(Cl)cc1` [Indomethacin], the IC50 with COX-1 (read-out: IC50 (μM) COX-1) was […].
As to `Cc1cnc2c(-c3ccc(F)cc3)c(-c3ccc(S(C)(=O)=O)cc3)nn2c1C` [VIII], the 50% inhibitory concentration (IC50) is 13 µM in the test with COX-1 (read-out: IC50 COX-1) and 600 nM in the test on COX-2.
In the case of `NS(=O)(=O)c1ccc(-c2nc(Cl)cc(NCc3cccs3)n2)cc1` [VI], the SI in the test with COX-2 (COX-2 selectivity, Figure 1) is > 81,300. In the test with COX-2 (previous examples of Figure 1), the IC50 is 1.2 nM.
Regarding `NS(=O)(=O)c1ccc(-c2nccnc2-c2ccc(F)cc2)cc1` [V], the IC50 was over 300 µM in the test with COX-1 (setting [3]) and 1070 nM with COX-2 (previous examples of Figure 1).
`COc1ccc(-n2cc(-c3ccco3)c(C(F)(F)F)n2)cc1` [XI]: the values for the IC50 in the test with COX-1 (read-out: IC50 COX-1) and with COX-2 (Figure 1) were 3.4 µM and over 50000 nM, respectively.
Regarding `Nc1onc(-c2ccc(Cl)o2)c1-c1ccccc1` [X], the figures for the IC50 with COX-1 (read-out: IC50 COX-1) and in the test with COX-2 (Figure 1) were 1.1 µM and over 50000 nM, respectively.

These data come from paper PMC11206759, “Synthesis, Docking, and DFT Studies on Novel Schiff Base Sulfonamide Analogues as Selective COX-1 Inhibitors with Anti-Platelet Aggregation Activity” (Pharmaceuticals, 2024).
